Results as given in the NIST ThermoML archive (doi:10.1016/j.jct.2018.02.013).
± gives the expanded uncertainty stated by the source.

What was measured:
[1] = molar heat capacity at constant pressure; wn = mass fraction of the nth substance listed; conditions: 101 kPa, Liquid, Small sample (50 mg) DSC
[2] = wn = mass fraction of the nth substance listed; conditions: 101 kPa, Liquid; for mass density: Vibrating tube method; for thermal conductivity: transient hot wire; for viscosity: Cone and plate viscometry; for electrical conductivity: Direct current cell with electrodes

## CCCC(=O)[O-].CCCCCCCCCCCCCC[P+](CCCCCC)(CCCCCC)CCCCCC [trihexyl(tetradecyl)phosphonium butyrate] + O
[1]; 298.15 K, w2 = 0.1668
  molar heat capacity at constant pressure: 316.94 ± 19 J/K/mol
[1]; 303.15 K, w2 = 0.1668
  molar heat capacity at constant pressure: 319.46 ± 20 J/K/mol
[1]; 308.15 K, w2 = 0.1668
  molar heat capacity at constant pressure: 321.6 ± 20 J/K/mol
[1]; 313.15 K, w2 = 0.1668
  molar heat capacity at constant pressure: 324.22 ± 20 J/K/mol
[1]; 318.15 K, w2 = 0.1668
  molar heat capacity at constant pressure: 327.2 ± 20 J/K/mol
[1]; 323.15 K, w2 = 0.1668
  molar heat capacity at constant pressure: 330.19 ± 20 J/K/mol
[1]; 328.15 K, w2 = 0.1668
  molar heat capacity at constant pressure: 333.45 ± 21 J/K/mol
[1]; 333.15 K, w2 = 0.1668
  molar heat capacity at constant pressure: 336.44 ± 21 J/K/mol
[1]; 338.15 K, w2 = 0.1668
  molar heat capacity at constant pressure: 340.64 ± 21 J/K/mol
[1]; 343.15 K, w2 = 0.1668
  molar heat capacity at constant pressure: 344.65 ± 21 J/K/mol
[1]; 348.15 K, w2 = 0.1668
  molar heat capacity at constant pressure: 348.29 ± 21 J/K/mol
[1]; 353.15 K, w2 = 0.1668
  molar heat capacity at constant pressure: 351.74 ± 22 J/K/mol
[1]; 358.15 K, w2 = 0.1668
  molar heat capacity at constant pressure: 356.22 ± 22 J/K/mol
[1]; 363.15 K, w2 = 0.1668
  molar heat capacity at constant pressure: 360.42 ± 22 J/K/mol
[2]; 298.15 K, w2 = 0.1668
  mass density: 907.8 ± 1.9 kg/m3
  thermal conductivity: 0.189 ± 0.01 W/m/K
[2]; 298.2 K, w2 = 0.1668
  viscosity: 61.46 ± 3.8 mPa·s
[2]; 302.4 K, w2 = 0.1668
  electrical conductivity: 0.11 ± 0.0049 S/m
[2]; 303.15 K, w2 = 0.1668
  mass density: 904.6 ± 1.9 kg/m3
[2]; 303.2 K, w2 = 0.1668
  viscosity: 48.17 ± 3 mPa·s
[2]; 303.9 K, w2 = 0.1668
  electrical conductivity: 0.118 ± 0.0051 S/m
[2]; 307.87 K, w2 = 0.1668
  thermal conductivity: 0.188 ± 0.01 W/m/K
[2]; 308.2 K, w2 = 0.1668
  viscosity: 38.54 ± 2.4 mPa·s
[2]; 308.4 K, w2 = 0.1668
  electrical conductivity: 0.14 ± 0.006 S/m
[2]; 313.15 K, w2 = 0.1668
  mass density: 898.3 ± 1.9 kg/m3
[2]; 313.2 K, w2 = 0.1668
  viscosity: 31.4 ± 1.9 mPa·s
  electrical conductivity: 0.168 ± 0.0072 S/m
[2]; 317.99 K, w2 = 0.1668
  thermal conductivity: 0.1859 ± 0.011 W/m/K
[2]; 318.2 K, w2 = 0.1668
  viscosity: 25.96 ± 1.6 mPa·s
[2]; 318.8 K, w2 = 0.1668
  electrical conductivity: 0.205 ± 0.0086 S/m
[2]; 323.15 K, w2 = 0.1668
  mass density: 891.9 ± 1.9 kg/m3
[2]; 323.2 K, w2 = 0.1668
  viscosity: 21.94 ± 1.3 mPa·s
  electrical conductivity: 0.235 ± 0.0099 S/m
[2]; 327.77 K, w2 = 0.1668
  thermal conductivity: 0.1848 ± 0.011 W/m/K
[2]; 328.2 K, w2 = 0.1668
  viscosity: 18.8 ± 1.1 mPa·s
[2]; 328.4 K, w2 = 0.1668
  electrical conductivity: 0.277 ± 0.012 S/m
[2]; 333.15 K, w2 = 0.1668
  mass density: 885 ± 1.8 kg/m3
[2]; 333.2 K, w2 = 0.1668
  viscosity: 16.05 ± 0.98 mPa·s
[2]; 333.4 K, w2 = 0.1668
  electrical conductivity: 0.322 ± 0.013 S/m
[2]; 338.18 K, w2 = 0.1668
  thermal conductivity: 0.1828 ± 0.011 W/m/K
[2]; 338.2 K, w2 = 0.1668
  viscosity: 13.85 ± 0.85 mPa·s
[2]; 338.8 K, w2 = 0.1668
  electrical conductivity: 0.38 ± 0.016 S/m
[2]; 343.15 K, w2 = 0.1668
  mass density: 877.8 ± 1.8 kg/m3
[2]; 343.2 K, w2 = 0.1668
  viscosity: 11.94 ± 0.73 mPa·s
  electrical conductivity: 0.423 ± 0.018 S/m
[2]; 347.9 K, w2 = 0.1668
  thermal conductivity: 0.1818 ± 0.01 W/m/K
[2]; 348.2 K, w2 = 0.1668
  viscosity: 10.37 ± 0.63 mPa·s
[2]; 349.7 K, w2 = 0.1668
  electrical conductivity: 0.499 ± 0.021 S/m
[2]; 353.15 K, w2 = 0.1668
  mass density: 870.5 ± 1.8 kg/m3
[2]; 353.2 K, w2 = 0.1668
  viscosity: 9.056 ± 0.55 mPa·s
[2]; 358.2 K, w2 = 0.1668
  viscosity: 8.136 ± 0.5 mPa·s
  thermal conductivity: 0.1808 ± 0.011 W/m/K
[2]; 363.15 K, w2 = 0.1668
  mass density: 863.9 ± 1.8 kg/m3
[2]; 363.2 K, w2 = 0.1668
  viscosity: 7.26 ± 0.44 mPa·s
[2]; 368.2 K, w2 = 0.1668
  viscosity: 7.063 ± 0.43 mPa·s

## CCCCCC(=O)[O-].CCCCCCCCCCCCCC[P+](CCCCCC)(CCCCCC)CCCCCC [trihexyl(tetradecyl)phosphonium hexanoate] + O
[1]; 298.15 K, w2 = 0.1583
  molar heat capacity at constant pressure: 318.37 ± 20 J/K/mol
[1]; 303.15 K, w2 = 0.1583
  molar heat capacity at constant pressure: 320.43 ± 20 J/K/mol
[1]; 308.15 K, w2 = 0.1583
  molar heat capacity at constant pressure: 323.18 ± 20 J/K/mol
[1]; 313.15 K, w2 = 0.1583
  molar heat capacity at constant pressure: 325.93 ± 20 J/K/mol
[1]; 318.15 K, w2 = 0.1583
  molar heat capacity at constant pressure: 328.97 ± 20 J/K/mol
[1]; 323.15 K, w2 = 0.1583
  molar heat capacity at constant pressure: 332.11 ± 21 J/K/mol
[1]; 328.15 K, w2 = 0.1583
  molar heat capacity at constant pressure: 335.25 ± 21 J/K/mol
[1]; 333.15 K, w2 = 0.1583
  molar heat capacity at constant pressure: 339.17 ± 21 J/K/mol
[1]; 338.15 K, w2 = 0.1583
  molar heat capacity at constant pressure: 343.3 ± 21 J/K/mol
[1]; 343.15 K, w2 = 0.1583
  molar heat capacity at constant pressure: 347.22 ± 21 J/K/mol
[1]; 348.15 K, w2 = 0.1583
  molar heat capacity at constant pressure: 351.44 ± 22 J/K/mol
[1]; 353.15 K, w2 = 0.1583
  molar heat capacity at constant pressure: 353.31 ± 22 J/K/mol
[1]; 358.15 K, w2 = 0.1583
  molar heat capacity at constant pressure: 359 ± 22 J/K/mol
[1]; 363.15 K, w2 = 0.1583
  molar heat capacity at constant pressure: 365.08 ± 22 J/K/mol
[2]; 298.15 K, w2 = 0.1583
  mass density: 905 ± 1.9 kg/m3
[2]; 298.2 K, w2 = 0.1583
  viscosity: 79.44 ± 4.9 mPa·s
[2]; 298.75 K, w2 = 0.1583
  thermal conductivity: 0.1871 ± 0.01 W/m/K
[2]; 299.4 K, w2 = 0.1583
  electrical conductivity: 0.0753 ± 0.0034 S/m
[2]; 303.15 K, w2 = 0.1583
  mass density: 901.7 ± 1.9 kg/m3
[2]; 303.2 K, w2 = 0.1583
  viscosity: 63.83 ± 3.9 mPa·s
[2]; 304 K, w2 = 0.1583
  electrical conductivity: 0.0926 ± 0.004 S/m
[2]; 307.76 K, w2 = 0.1583
  thermal conductivity: 0.1858 ± 0.0093 W/m/K
[2]; 308.1 K, w2 = 0.1583
  electrical conductivity: 0.11 ± 0.0047 S/m
[2]; 308.2 K, w2 = 0.1583
  viscosity: 51.41 ± 3.1 mPa·s
[2]; 313.15 K, w2 = 0.1583
  mass density: 894.6 ± 1.9 kg/m3
[2]; 313.2 K, w2 = 0.1583
  viscosity: 41.45 ± 2.5 mPa·s
[2]; 313.9 K, w2 = 0.1583
  electrical conductivity: 0.132 ± 0.0056 S/m
[2]; 317.72 K, w2 = 0.1583
  thermal conductivity: 0.1838 ± 0.01 W/m/K
[2]; 318.2 K, w2 = 0.1583
  viscosity: 34.56 ± 2.1 mPa·s
[2]; 318.4 K, w2 = 0.1583
  electrical conductivity: 0.16 ± 0.0068 S/m
[2]; 323.15 K, w2 = 0.1583
  mass density: 888 ± 1.8 kg/m3
[2]; 323.2 K, w2 = 0.1583
  viscosity: 29.8 ± 1.8 mPa·s
[2]; 323.6 K, w2 = 0.1583
  electrical conductivity: 0.184 ± 0.0077 S/m
[2]; 327.36 K, w2 = 0.1583
  thermal conductivity: 0.1824 ± 0.01 W/m/K
[2]; 328 K, w2 = 0.1583
  electrical conductivity: 0.217 ± 0.0091 S/m
[2]; 328.2 K, w2 = 0.1583
  viscosity: 24.98 ± 1.5 mPa·s
[2]; 333.15 K, w2 = 0.1583
  mass density: 880.5 ± 1.8 kg/m3
[2]; 333.2 K, w2 = 0.1583
  viscosity: 20.36 ± 1.2 mPa·s
[2]; 333.6 K, w2 = 0.1583
  electrical conductivity: 0.252 ± 0.011 S/m
[2]; 337.88 K, w2 = 0.1583
  thermal conductivity: 0.1814 ± 0.01 W/m/K
[2]; 338.2 K, w2 = 0.1583
  viscosity: 17.31 ± 1.1 mPa·s
[2]; 338.9 K, w2 = 0.1583
  electrical conductivity: 0.297 ± 0.012 S/m
[2]; 343 K, w2 = 0.1583
  electrical conductivity: 0.331 ± 0.014 S/m
[2]; 343.15 K, w2 = 0.1583
  mass density: 874.2 ± 1.8 kg/m3
[2]; 343.2 K, w2 = 0.1583
  viscosity: 15.85 ± 0.97 mPa·s
[2]; 347.85 K, w2 = 0.1583
  thermal conductivity: 0.1791 ± 0.011 W/m/K
[2]; 348.2 K, w2 = 0.1583
  viscosity: 13.19 ± 0.81 mPa·s
[2]; 349.3 K, w2 = 0.1583
  electrical conductivity: 0.391 ± 0.016 S/m
[2]; 353.15 K, w2 = 0.1583
  mass density: 867.8 ± 1.8 kg/m3
[2]; 353.2 K, w2 = 0.1583
  viscosity: 11.18 ± 0.68 mPa·s
[2]; 358.05 K, w2 = 0.1583
  thermal conductivity: 0.1774 ± 0.011 W/m/K
[2]; 358.2 K, w2 = 0.1583
  viscosity: 10.4 ± 0.63 mPa·s
[2]; 363.15 K, w2 = 0.1583
  mass density: 861 ± 1.8 kg/m3
[2]; 363.2 K, w2 = 0.1583
  viscosity: 9.406 ± 0.57 mPa·s
[2]; 368.2 K, w2 = 0.1583
  viscosity: 8.038 ± 0.49 mPa·s
